pEC50: −log10 of the molar value. ≈ marks a conversion by molar mass, not a printed value.
How the values were obtained:
[1] = Solubility in FaSSIF; conditions: 23 °C, pH 6.5, fassif, thermodynamic from solid
In short: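 Concentration measured by HPLC-UV after solid compound was dosed at 5 mg/mL into pH 6.5 fasted-state simulated intestinal fluid containing taurocholate and lecithin (4:1 molar) and vortexed.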

[2] = tested on: HIV-1 IIIB strain; assay: MT-4 HIV Wild Type Virus Infection Assay (IIIB Virus); format: cell-based; conditions: Human immunodeficiency virus 1, IIIB, MT4, 120 h, MT-4 cells acutely infected with HIV-1 IIIB, 5 day incubation, Cell-titer glo
In short: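 MT-4 cells at 2×10^6 cells/ml in RPMI/10% FBS were acutely infected with HIV-1 IIIB for 1 h at 37° C, diluted 25× and added to serially diluted compounds. After 5 days at 37° C, viability read by CellTiter-Glo luminescence; EC50 from dose-response curves.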

[3] = target: bovine intestinal alkaline phosphatase (Bos taurus (Bovine), UniProt P19111); assay: BiALP: conversion by bovine intestinal alkaline phosphatase; format: in vitro ADME; conditions: 2 μM substrate, 100 ng/mL iALP, Tris pH 7.8, 37° C., 60 minutes
In short: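 LC-MS (positive mode) quantified analyte/internal-standard peak area ratios, referenced to 2 μM parent product. This followed a 60 min, 37° C reaction of 2 μM substrate in Tris buffer pH 7.8 (1 mM MgCl2, 1 mM ZnCl2) containing 100 ng/mL iALP or buffer alone, run in triplicate.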

[4] = PBS Stability Assay; format: physicochemical; conditions: buffer, pH 7.4, 2 μM, phosphate buffered saline pH 7.4; read-out: PBS T½
In short: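 Half-life derives from first-order exponential decline of % compound remaining, quantified by LC-MS analyte/internal-standard peak-area ratio. Compound (2 μM final) sat in pH 7.4 phosphate-buffered saline, with aliquots quenched into acidified acetonitrile containing labetalol from 0 to 120 min.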

bovine intestinal alkaline phosphatase, sequence (P19111 20-506): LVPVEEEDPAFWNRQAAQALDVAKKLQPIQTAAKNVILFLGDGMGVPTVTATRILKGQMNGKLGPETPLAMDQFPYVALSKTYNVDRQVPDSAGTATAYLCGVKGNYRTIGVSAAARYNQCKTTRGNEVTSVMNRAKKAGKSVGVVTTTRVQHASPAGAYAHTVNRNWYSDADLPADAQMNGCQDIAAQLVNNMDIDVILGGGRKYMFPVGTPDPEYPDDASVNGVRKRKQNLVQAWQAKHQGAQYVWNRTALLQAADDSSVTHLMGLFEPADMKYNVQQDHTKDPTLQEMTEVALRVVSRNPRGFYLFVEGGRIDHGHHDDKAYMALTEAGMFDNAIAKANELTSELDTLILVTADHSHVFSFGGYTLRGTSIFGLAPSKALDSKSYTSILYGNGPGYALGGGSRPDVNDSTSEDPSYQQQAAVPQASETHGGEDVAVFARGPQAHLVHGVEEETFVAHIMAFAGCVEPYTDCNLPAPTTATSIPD

Row | SMILES | solubility at 2 h [1] | pEC50 [2] | [Compound] [3] | half-life at 2 μM [4]
1 | COC(=O)N[C@H](C(=O)N[C@@H](Cc1ccc(C#Cc2cnc(N3CC4CCC(C3)N4C3COC3)nc2)cc1)[C@H](CN(Cc1c(F)cc(-c2ccn(C(F)F)n2)cc1F)NC(=O)[C@@H](NC(=O)OC)C(C)(C)C(F)(F)F)OC(=O)CC(C)(C)c1c(CC(=O)NCCCC(=O)O)cc(C)cc1OP(=O)(O)O)C(C)(C)C(F)(F)F [Example 91] | < 1000 µg/mL | 7.22 | 2153.3 nM | 6.49 h
2 | COC(=O)N[C@H](C(=O)N[C@@H](Cc1ccc(C#Cc2cnc(N3CC4CCC(C3)N4C3COC3)nc2)cc1)[C@H](CN(Cc1c(F)cc(-c2ccn(C(F)F)n2)cc1F)NC(=O)[C@@H](NC(=O)OC)C(C)(C)C(F)(F)F)OC(=O)CC(C)(C)c1c(CC(=O)N(C)[C@@H](C)C(=O)O)cc(C)cc1OP(=O)(O)O)C(C)(C)C(F)(F)F [Example 97] | 4660 µg/mL (≈ 2970 µM) | 6.69 | 1772.9 nM | 4.64 h
3 | COC(=O)N[C@H](C(=O)N[C@@H](Cc1ccc(C#Cc2cnc(N3CC4CCC(C3)N4C3COC3)nc2)cc1)[C@H](CN(Cc1c(F)cc(-c2ccn(C(F)F)n2)cc1F)NC(=O)[C@@H](NC(=O)OC)C(C)(C)C(F)(F)F)OC(=O)OCOC(=O)CC(C)(C)c1c(CC(=O)NCP(=O)(O)O)cc(C)cc1OP(=O)(O)O)C(C)(C)C(F)(F)F [Example 69] | 4950 µg/mL (≈ 3000 µM) | 8.46 | 1578.5 nM | 13.1 h
4 | COC(=O)N[C@H](C(=O)N[C@@H](Cc1ccc(C#Cc2cnc(N3CC4CCC(C3)N4C3COC3)nc2)cc1)[C@H](CN(Cc1c(F)cc(-c2ccn(C(F)F)n2)cc1F)NC(=O)[C@@H](NC(=O)OC)C(C)(C)C(F)(F)F)OC(=O)CC(C)(C)c1c(CC(=O)NCCCS(=O)(=O)O)cc(C)cc1OP(=O)(O)O)C(C)(C)C(F)(F)F [Example 25] | 2410 µg/mL (≈ 1500 µM) | 7.20 | 2023.7 nM | 1.37 h
5 | COC(=O)N[C@H](C(=O)N[C@@H](Cc1ccc(C#Cc2cnc(N3CC4CCC(C3)N4C3COC3)nc2)cc1)[C@H](CN(Cc1c(F)cc(-c2ccn(C(F)F)n2)cc1F)NC(=O)[C@@H](NC(=O)OC)C(C)(C)C(F)(F)F)OC(=O)CC(C)(C)c1c(CC(=O)NCCOP(=O)(O)O)cc(C)cc1OP(=O)(O)O)C(C)(C)C(F)(F)F [Example 100, (5S,10S,11S,14S)-8-(4-(1-(difluoromethyl)-1H-pyrazol-3-yl)-2,6-difluorobenzyl)-11-(4-((2-(8-(oxetan-3-yl)-3,8-diazabicyclo[3.2.1]octan-3-yl)pyrimidin-5-yl)ethynyl)benzyl)-3,6,13,16-tetraoxo-5,14-bis(1,1,1-trifluoro-2-methylpropan-2-yl)-2,17-dioxa-4,7,8,12,15-pentaazaoctadecan-10-yl 3-methyl-3-(4-methyl-2-(2-oxo-2-((2-(phosphonooxy)ethyl)amino)ethyl)-6-(phosphonooxy)phenyl)butanoate] | 4450 µg/mL (≈ 2770 µM) | 7.37 | 1103.4 nM | 5.22 h
6 | COC(=O)N[C@H](C(=O)N[C@@H](Cc1ccc(C#Cc2cnc(N3CC4CCC(C3)N4C3COC3)nc2)cc1)[C@H](CN(Cc1c(F)cc(-c2ccn(C(F)F)n2)cc1F)NC(=O)[C@@H](NC(=O)OC)C(C)(C)C(F)(F)F)OC(=O)OCOC(=O)CC(C)(C)c1c(CC(=O)NCC(=O)O)cc(C)cc1OP(=O)(O)O)C(C)(C)C(F)(F)F [Example 71] | 4420 µg/mL (≈ 2740 µM) | 8.41 | 1036.2 nM | 7.86 h
